{"source": "paper PMC2693460", "about": "(Cancer chemotherapy and pharmacology, 2009)", "target": "T1, ABCG2 (Homo sapiens, UniProt Q9UNQ0)", "T1 sequence (Q9UNQ0 1-655)": "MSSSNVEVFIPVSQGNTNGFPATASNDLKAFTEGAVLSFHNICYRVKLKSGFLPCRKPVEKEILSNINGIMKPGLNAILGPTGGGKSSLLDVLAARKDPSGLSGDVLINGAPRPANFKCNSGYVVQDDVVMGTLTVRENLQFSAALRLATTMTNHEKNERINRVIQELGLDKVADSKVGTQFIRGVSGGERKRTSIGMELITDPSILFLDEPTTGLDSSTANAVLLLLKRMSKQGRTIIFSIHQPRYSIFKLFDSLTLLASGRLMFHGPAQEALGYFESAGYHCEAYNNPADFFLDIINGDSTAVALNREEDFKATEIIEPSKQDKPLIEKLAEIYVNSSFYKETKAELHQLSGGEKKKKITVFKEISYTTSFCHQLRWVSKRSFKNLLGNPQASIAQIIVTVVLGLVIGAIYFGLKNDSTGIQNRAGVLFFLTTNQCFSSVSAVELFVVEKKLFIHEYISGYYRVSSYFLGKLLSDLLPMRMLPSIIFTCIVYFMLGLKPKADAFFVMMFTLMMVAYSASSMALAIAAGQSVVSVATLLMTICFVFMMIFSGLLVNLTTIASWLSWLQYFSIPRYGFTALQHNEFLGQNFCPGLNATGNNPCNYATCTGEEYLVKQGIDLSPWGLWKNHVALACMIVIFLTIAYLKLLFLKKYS", "assay_type": "binding"}
{"smiles": "CCN(CC)CCN1C(=O)c2c(c3c4cccc(Cl)c4n([C@@H]4O[C@H](CO)[C@@H](OC)[C@H](O)[C@H]4O)c3c3[nH]c4c(Cl)cccc4c23)C1=O", "note": "[becatecarin]", "values": [{"measurement": "IC50", "value": 2.1, "unit": "µM"}]}
